{"source": "ChEMBL document CHEMBL3885881", "about": "“DrugMatrix”", "species_on_record": "Rattus norvegicus", "experiment": "DrugMatrix - Regimen: Daily Repeat", "type": "toxicity, organism-based, Sprague-Dawley", "parameters": "regimen Daily Repeat, gender Male, age 6-8 weeks", "details": "in vivo, po, route oral GAVAGE, […]; for ABSOLUTE BASOPHIL / ABSOLUTE EOSINOPHIL / ABSOLUTE LYMPHOCYTE / ABSOLUTE SEGMENTED NEUTROPHIL / BASOPHIL / EOSINOPHIL / ERYTHROCYTE COUNT / HEMATOCRIT / HEMOGLOBIN / LYMPHOCYTE / MEAN CORPUSCULAR HEMOGLOBIN / MEAN CORPUSCULAR HEMOGLOBIN CONCENTRATION / MEAN CORPUSCULAR VOLUME / MONOCYTE / NUCLEATED RED BLOOD CELLS / PLATELET COUNT: tissue Blood; for ALANINE AMINOTRANSFERASE / ALBUMIN / ALKALINE PHOSPHATASE / ASPARTATE AMINOTRANSFERASE / BLOOD UREA NITROGEN / CARBON DIOXIDE / CHOLESTEROL / CREATINE PHOSPHOKINASE / CREATININE / GLUCOSE / LACTATE DEHYDROGENASE / POTASSIUM / SODIUM / TOTAL BILIRUBIN / TOTAL PROTEIN / URIC ACID: tissue Plasma", "key": {"[1]": {"details": "20 mg/kg, 120 h, dose level Low, time 5 day"}, "[2]": {"details": "2000 mg/kg, 72 h, dose level High, time 3 day"}, "[3]": {"details": "2000 mg/kg, 120 h, dose level High, time 5 day"}}}
{"smiles": "COc1ccccc1OCCNCC(O)COc1cccc2[nH]c3ccccc3c12", "note": "(stereo unspecified) [CARVEDILOL]", "values": [{"measurement": "ABSOLUTE BASOPHIL", "setting": "[1]", "value": 0, "unit": "CELLS/uL"}, {"measurement": "ABSOLUTE EOSINOPHIL", "setting": "[1]", "value": 48, "unit": "CELLS/uL"}, {"measurement": "ABSOLUTE LYMPHOCYTE", "setting": "[1]", "value": 6685, "unit": "CELLS/uL"}, {"measurement": "ABSOLUTE SEGMENTED NEUTROPHIL", "setting": "[1]", "value": 615, "unit": "CELLS/uL"}, {"measurement": "BASOPHIL", "setting": "[1]", "value": 0, "unit": "%"}, {"measurement": "EOSINOPHIL", "setting": "[1]", "value": 0.67, "unit": "%"}, {"measurement": "ERYTHROCYTE COUNT", "setting": "[1]", "value": 5.51, "unit": "x10E6/uL"}, {"measurement": "HEMATOCRIT", "setting": "[1]", "value": 34.9, "unit": "%"}, {"measurement": "HEMOGLOBIN", "setting": "[1]", "value": 13.3, "unit": "G/DL"}, {"measurement": "LYMPHOCYTE", "setting": "[1]", "value": 90.33, "unit": "%"}, {"measurement": "MEAN CORPUSCULAR HEMOGLOBIN", "setting": "[1]", "value": 24.17, "unit": "pg"}, {"measurement": "MEAN CORPUSCULAR HEMOGLOBIN CONCENTRATION", "setting": "[1]", "value": 38.13, "unit": "G/DL"}, {"measurement": "MEAN CORPUSCULAR VOLUME", "setting": "[1]", "value": 63.4, "unit": "fL"}, {"measurement": "MONOCYTE", "setting": "[1]", "value": 0.67, "unit": "%"}, {"measurement": "NUCLEATED RED BLOOD CELLS", "setting": "[1]", "value": "0.33 /100WBC"}, {"measurement": "PLATELET COUNT", "setting": "[1]", "value": 1008, "unit": "x10E3/uL"}, {"measurement": "ALANINE AMINOTRANSFERASE", "setting": "[1]", "value": 58.33, "unit": "u/L"}, {"measurement": "ALBUMIN", "setting": "[1]", "value": 3.93, "unit": "G/DL"}, {"measurement": "ALKALINE PHOSPHATASE", "setting": "[1]", "value": 439.33, "unit": "u/L"}, {"measurement": "ASPARTATE AMINOTRANSFERASE", "setting": "[1]", "value": 81.67, "unit": "u/L"}, {"measurement": "BLOOD UREA NITROGEN", "setting": "[1]", "value": 15, "unit": "mg/dL"}, {"measurement": "CARBON DIOXIDE", "setting": "[1]", "value": 30.67, "unit": "mmol/L"}, {"measurement": "CHOLESTEROL", "setting": "[1]", "value": 57, "unit": "mg/dL"}, {"measurement": "CREATINE PHOSPHOKINASE", "setting": "[1]", "value": 167.67, "unit": "u/L"}, {"measurement": "CREATININE", "setting": "[1]", "value": 0.13, "unit": "mg/dL"}, {"measurement": "GLUCOSE", "setting": "[1]", "value": 153.67, "unit": "mg/dL"}, {"measurement": "LACTATE DEHYDROGENASE", "setting": "[1]", "value": 137, "unit": "u/L"}, {"measurement": "POTASSIUM", "setting": "[1]", "value": 5.49, "unit": "MEQ/L"}, {"measurement": "SODIUM", "setting": "[1]", "value": 144.75, "unit": "MEQ/L"}, {"measurement": "TOTAL BILIRUBIN", "setting": "[1]", "value": 0.23, "unit": "mg/dL"}, {"measurement": "TOTAL PROTEIN", "setting": "[1]", "value": 5.63, "unit": "G/DL"}, {"measurement": "URIC ACID", "setting": "[1]", "value": 0.5, "unit": "mg/dL"}, {"measurement": "ABSOLUTE BASOPHIL", "setting": "[2]", "value": 0, "unit": "CELLS/uL"}, {"measurement": "ABSOLUTE EOSINOPHIL", "setting": "[2]", "value": 24.67, "unit": "CELLS/uL"}, {"measurement": "ABSOLUTE LYMPHOCYTE", "setting": "[2]", "value": 8554.33, "unit": "CELLS/uL"}, {"measurement": "ABSOLUTE SEGMENTED NEUTROPHIL", "setting": "[2]", "value": 841.33, "unit": "CELLS/uL"}, {"measurement": "BASOPHIL", "setting": "[2]", "value": 0, "unit": "%"}, {"measurement": "EOSINOPHIL", "setting": "[2]", "value": 0.33, "unit": "%"}, {"measurement": "ERYTHROCYTE COUNT", "setting": "[2]", "value": 5.87, "unit": "x10E6/uL"}, {"measurement": "HEMATOCRIT", "setting": "[2]", "value": 36.37, "unit": "%"}, {"measurement": "HEMOGLOBIN", "setting": "[2]", "value": 13.9, "unit": "G/DL"}, {"measurement": "LYMPHOCYTE", "setting": "[2]", "value": 88, "unit": "%"}, {"measurement": "MEAN CORPUSCULAR HEMOGLOBIN", "setting": "[2]", "value": 23.67, "unit": "pg"}, {"measurement": "MEAN CORPUSCULAR HEMOGLOBIN CONCENTRATION", "setting": "[2]", "value": 38.23, "unit": "G/DL"}, {"measurement": "MEAN CORPUSCULAR VOLUME", "setting": "[2]", "value": 61.93, "unit": "fL"}, {"measurement": "MONOCYTE", "setting": "[2]", "value": 1.67, "unit": "%"}, {"measurement": "NUCLEATED RED BLOOD CELLS", "setting": "[2]", "value": "0 /100WBC"}, {"measurement": "PLATELET COUNT", "setting": "[2]", "value": 1204, "unit": "x10E3/uL"}, {"measurement": "ALANINE AMINOTRANSFERASE", "setting": "[2]", "value": 147, "unit": "u/L"}, {"measurement": "ALBUMIN", "setting": "[2]", "value": 3.83, "unit": "G/DL"}, {"measurement": "ALKALINE PHOSPHATASE", "setting": "[2]", "value": 433.33, "unit": "u/L"}, {"measurement": "ASPARTATE AMINOTRANSFERASE", "setting": "[2]", "value": 253.67, "unit": "u/L"}, {"measurement": "BLOOD UREA NITROGEN", "setting": "[2]", "value": 12.33, "unit": "mg/dL"}, {"measurement": "CARBON DIOXIDE", "setting": "[2]", "value": 35.67, "unit": "mmol/L"}, {"measurement": "CHOLESTEROL", "setting": "[2]", "value": 135.33, "unit": "mg/dL"}, {"measurement": "CREATINE PHOSPHOKINASE", "setting": "[2]", "value": 315.33, "unit": "u/L"}, {"measurement": "CREATININE", "setting": "[2]", "value": 0.15, "unit": "mg/dL"}, {"measurement": "GLUCOSE", "setting": "[2]", "value": 110.33, "unit": "mg/dL"}, {"measurement": "LACTATE DEHYDROGENASE", "setting": "[2]", "value": 180, "unit": "u/L"}, {"measurement": "POTASSIUM", "setting": "[2]", "value": 4.83, "unit": "MEQ/L"}, {"measurement": "SODIUM", "setting": "[2]", "value": 143.43, "unit": "MEQ/L"}, {"measurement": "TOTAL BILIRUBIN", "setting": "[2]", "value": 0.27, "unit": "mg/dL"}, {"measurement": "TOTAL PROTEIN", "setting": "[2]", "value": 5.7, "unit": "G/DL"}, {"measurement": "URIC ACID", "setting": "[2]", "value": 0.7, "unit": "mg/dL"}, {"measurement": "ABSOLUTE BASOPHIL", "setting": "[3]", "value": 0, "unit": "CELLS/uL"}, {"measurement": "ABSOLUTE EOSINOPHIL", "setting": "[3]", "value": 92.67, "unit": "CELLS/uL"}, {"measurement": "ABSOLUTE LYMPHOCYTE", "setting": "[3]", "value": 7992.67, "unit": "CELLS/uL"}, {"measurement": "ABSOLUTE SEGMENTED NEUTROPHIL", "setting": "[3]", "value": 4483.67, "unit": "CELLS/uL"}, {"measurement": "BASOPHIL", "setting": "[3]", "value": 0, "unit": "%"}, {"measurement": "EOSINOPHIL", "setting": "[3]", "value": 0.67, "unit": "%"}, {"measurement": "ERYTHROCYTE COUNT", "setting": "[3]", "value": 7.13, "unit": "x10E6/uL"}, {"measurement": "HEMATOCRIT", "setting": "[3]", "value": 41.5, "unit": "%"}, {"measurement": "HEMOGLOBIN", "setting": "[3]", "value": 15.4, "unit": "G/DL"}, {"measurement": "LYMPHOCYTE", "setting": "[3]", "value": 64.67, "unit": "%"}, {"measurement": "MEAN CORPUSCULAR HEMOGLOBIN", "setting": "[3]", "value": 21.77, "unit": "pg"}, {"measurement": "MEAN CORPUSCULAR HEMOGLOBIN CONCENTRATION", "setting": "[3]", "value": 37.27, "unit": "G/DL"}, {"measurement": "MEAN CORPUSCULAR VOLUME", "setting": "[3]", "value": 58.43, "unit": "fL"}, {"measurement": "MONOCYTE", "setting": "[3]", "value": 1.67, "unit": "%"}, {"measurement": "NUCLEATED RED BLOOD CELLS", "setting": "[3]", "value": "0 /100WBC"}, {"measurement": "PLATELET COUNT", "setting": "[3]", "value": 1163.67, "unit": "x10E3/uL"}, {"measurement": "ALANINE AMINOTRANSFERASE", "setting": "[3]", "value": 380, "unit": "u/L"}, {"measurement": "ALBUMIN", "setting": "[3]", "value": 3.27, "unit": "G/DL"}, {"measurement": "ALKALINE PHOSPHATASE", "setting": "[3]", "value": 444.33, "unit": "u/L"}, {"measurement": "ASPARTATE AMINOTRANSFERASE", "setting": "[3]", "value": 620.33, "unit": "u/L"}, {"measurement": "BLOOD UREA NITROGEN", "setting": "[3]", "value": 39.33, "unit": "mg/dL"}, {"measurement": "CARBON DIOXIDE", "setting": "[3]", "value": 27, "unit": "mmol/L"}, {"measurement": "CHOLESTEROL", "setting": "[3]", "value": 132.33, "unit": "mg/dL"}, {"measurement": "CREATINE PHOSPHOKINASE", "setting": "[3]", "value": 3005.33, "unit": "u/L"}, {"measurement": "CREATININE", "setting": "[3]", "value": 0.42, "unit": "mg/dL"}, {"measurement": "GLUCOSE", "setting": "[3]", "value": 124, "unit": "mg/dL"}, {"measurement": "LACTATE DEHYDROGENASE", "setting": "[3]", "value": 673.67, "unit": "u/L"}, {"measurement": "POTASSIUM", "setting": "[3]", "value": 6.23, "unit": "MEQ/L"}, {"measurement": "SODIUM", "setting": "[3]", "value": 138.53, "unit": "MEQ/L"}, {"measurement": "TOTAL BILIRUBIN", "setting": "[3]", "value": 0.4, "unit": "mg/dL"}, {"measurement": "TOTAL PROTEIN", "setting": "[3]", "value": 5.33, "unit": "G/DL"}, {"measurement": "URIC ACID", "setting": "[3]", "value": 1.5, "unit": "mg/dL"}]}
